Data on 25 molecules can be found in US9499488B2, “Vitamin D receptor agonists and uses thereof” (Beth Israel Deaconess Medical Center, Inc., priority 2011, dated 2016).

The structures appear in SMILES notation.

The target of data set [1] is T1, VDR (GAL4-DBD/VDR-LBD fusion protein in HEK293T cells) (Homo sapiens, UniProt P11473).
T1 construct: the targeting construct (GAL4-DBD/VDR-LBD) fusion protein engineered in a HEK293T cell line containing 7XUAS-bla; host or cells: GeneBLAzer VDR-UAS-bla HEK 293T cells
T1 sequence (P11473 127-423 limits assumed): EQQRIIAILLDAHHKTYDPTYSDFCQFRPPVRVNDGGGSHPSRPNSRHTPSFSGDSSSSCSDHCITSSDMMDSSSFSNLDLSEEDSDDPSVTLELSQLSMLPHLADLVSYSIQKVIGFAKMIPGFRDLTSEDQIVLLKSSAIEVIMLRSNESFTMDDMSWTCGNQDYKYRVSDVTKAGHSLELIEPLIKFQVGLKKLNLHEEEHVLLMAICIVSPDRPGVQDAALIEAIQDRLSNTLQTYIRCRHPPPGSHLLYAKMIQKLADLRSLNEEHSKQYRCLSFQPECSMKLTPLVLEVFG
The data set can be described thus: GeneBLAzer cell-based VDR assay (VDR-UAS-bla HEK 293T, beta-lactamase reporter). Particulars: for Activity: agonist or antagonist at VDR, compounds of formula (I) tested as mixture of diastereomers; for VDR agonistic activity (degree, in words): high throughput screen of vitamin D receptor activity. The source says: High throughput assay validation of the top ranked unique molecules from each of three PDB conformations on the basis of docking score (glide score+ionization state penalty). From this priority list 200 of the best ranked molecules, following ADMET evaluation, were purchased and subjected to binding assays. The compounds of formula (I) were obtained and tested as a mixture of diastereomers.
To determine which compounds identified by virtual screens are actually capable of regulating the transcriptional profile of VDR, we performed GeneBLAzer® Cell-Based VDR Assay (kit was bought from Invitrogen and assay performed as per instructions). Upon binding of a VDR agonist to the targeting construct (GAL4-DBD/VDR-LBD) fusion protein engineered in a HEK293T cell line containing 7XUAS-bla, a transcriptional cascade is initiated that produces β-lactamase (BLA). In the presence of the BLA LiveBLAzer™ substrate, cells expressing BLA will fluoresce blue (460 nm), while those not expressing BLA will fluoresce green (530 nm); higher […] ratio indicating the activation of VDR, whereas in presence of calcitriol (potent agonist) diminishing of this ratio indicates an antagonist behavior of the ligand. The agonist and antagonist abilities of CADD-selected compounds were determined in six-point concentration profile and compared with vehicle.
GeneBLAzer® VDR-UAS-bla HEK 293T cells were purchased from Invitrogen (Cat# K1700). The cells were cultured in growth medium in a humidified (37° C./5% CO2) incubator following the manufacture's instruction. Test compounds (ChemBridge, San Diego, Calif.) and Calcitriol (1α,25-Dihydroxyvitamin D3, Sigma) were dissolved in 100% DMSO(Sigma) at 1000-fold stock concentration and stored at −20° C., which were diluted in assay medium immediately prior to use. LiverBLAzer-FRET B/G loading kit was purchased from Invitrogen.
The GeneBLAzer® VDR-UAS-bla HEK 293T cell-based assay was used to screen 200 compounds for activity at the vitamin D receptor. The assay was run in triplicate following the manufacture's instruction. Briefly, 2×10^4 cells in 32 μl assay medium were added to each well of a 384-well black-wall assay plate (Corning Incorporated, Cat#3712). To each well was added 8 al of compound solution diluted in assay medium, the cells were incubated in a humidified (37° C./5% CO2) incubator for 5 hours. The cell-free wells (containing 32 μl assay medium only) and unstimulated cell wells were treated in parallel with the same concentration of DMSO in assay medium, which were used as background controls and blank controls, respectively. Calcitriol was used as a positive control. To each well was added 8 μl of LiverBLAzer-FRET B/G substrate mixture. The plate was covered with plate sealer and incubated at room temperature for 2 hours in the dark. Fluorescence emission was measured on SpectraMax plate reader at 460 nm and 530 nm with excitation set to 409 nm. After subtraction of background, the average value at 460 nm was divided by the average value at 530 nm to obtain the 460/530 ratio.

The nature of data set [2]: Inhibition of hyperparathyroidism: serum PTH in 1α-hydroxylase knock out mice. The data set is classed as in vivo. Particulars: 0.6 μg/kg three times a week; 1α-OH KO mice; serum PTH ELISA. The source says: We performed long-term (7 days) in vivo experiments comparing the parathyroid hormone (PTH) levels following administration of compound 10 (aka VDRA) to an equivalent dose of paricalcitol (PC), a VDR agonist used to treat secondary hyperparathyroidism.
For this study, we used 1α-hydroxylase (1α-OH) knock out (KO) mice, which lack 1α-OH, an enzyme that converts 25(OH)VitD3 to the hormonally active form, 1,25-dihydroxyvitamin D3 (1,25(OH)2VitD3). These mice are designed to have a low vitamin D level at baseline and are hypocalcemic.
We administered 0.6 μg/kg of compound 10 or paricalcitol three times a week (Mon, Wed, Fri) for three weeks. Serum PTH level was measured using a PTH (intact, mouse) ELISA immunoassay (Alpco, Salem, Mass.).
In general terms: An ELISA detects its analyte on a solid surface through an enzyme-linked reagent.

Data set [3] in a line: Calcemic effects: serum ionized calcium in 1α-hydroxylase knock out mice. The settings on record: 1α-OH KO mice. The data set is classed as in vivo. As for the experimental part:
We performed short-term (24 hours) and long-term (7 days) in vivo experiments comparing the calcemic effect of compound 10 (aka VDRA) to an equivalent dose of calcitriol.
For this study, we used 1α-hydroxylase (1α-OH) knock out (KO) mice, which lack 1α-OH, an enzyme that converts 25(OH)VitD3 to the hormonally active form, 1,25-dihydroxyvitamin D3 (1,25(OH)2VitD3) or calcitriol. These mice are designed to have a low vitamin D level at baseline and are hypocalcemic.
For the short term experiment, we administered 0.6 μg/kg (therapeutic dose) and 3 μg/kg (supratherapeutic dose) of vehicle, calcitriol or compound 10, and then measured serum calcium level 24 hours after administration.
For the long-term experiment, we administered 0.6 μg/kg of vehicle, calcitriol or compound 10 for one week. We administered the drugs on Wednesday, Friday, and Monday, and measured serum calcium level on the following Tuesday.
Serum ionized calcium levels were measured using clinical grade iSTAT system (Abbott laboratories).

With `Cc1cc(C)c(NS(=O)(=O)c2ccc(NC(=O)COc3ccc(Cl)cc3Cl)cc2)c(C)c1` [Compound 22], the Activity entry in data set [1] is reported as “Antagonist”.
Regarding `CCc1ccc(OCC(=O)Nc2ccc(S(=O)(=O)Nc3cc(C)cc(C)c3)cc2)cc1` [Compound 21], the Activity result in data set [1] was “Antagonist”.
In the case of `CCOc1cc(C2C(C(=O)OCCSCC)=C(C)NC3=C2C(=O)CC(c2ccc(OC)cc2)C3)ccc1O` (stereo not shown) [Compound 7], the Activity entry in data set [1] was “Agonist”.
On to `COc1ccc(C2CC(=O)C3=C(C2)NC(C)=C(C(=O)OCCOc2ccccc2)C3c2ccccc2)cc1` (stereo not shown) [Compound 12], for which the Activity entry in data set [1] is given as “Agonist”.
The same measure, in the same setting: the entry for `CCSCCOC(=O)C1=C(C)NC2=C(C(=O)CC(c3ccccc3OC)C2)C1c1ccccc1F` (stereo not shown) [Compound 6] is “Agonist”; for `COc1ccc(NS(=O)(=O)c2ccc(NC(=O)COc3ccccc3C)cc2)cc1` [Compound 24] it is “Antagonist”; for `CCOC(=O)C1=C(C)NC2=C(C(=O)CC(c3ccc(OC)cc3)C2)C1c1ccc(O)cc1` (stereo not shown) [Compound 9] it is “Antagonist”.
As for `CCc1ccc(C2C(C(=O)OCCOc3ccccc3)=C(C)NC3=C2C(=O)CC(c2ccc(OC)cc2)C3)cc1` (stereo not shown) [Compound 5], in data set [1], the Activity result is “Agonist”.
As to `CCOCCOC(=O)C1=C(C)NC2=C(C(=O)CC(c3ccc(Cl)cc3)C2)C1c1ccc(F)cc1` (stereo not shown) [Compound 16], the Activity result in data set [1] is “Agonist”.
In the case of `CCOC(=O)C1=C(C)NC2=C(C(=O)CC(c3ccc(OC)cc3)C2)C1c1cccc(O)c1` (stereo not shown) [Compound 4], the Activity result in data set [1] is listed as “Antagonist”.
Regarding `CCSCCOC(=O)C1=C(C)NC2=C(C(=O)CC(c3ccc(Cl)cc3)C2)C1c1ccccc1F` (stereo not shown) [Compound 11], the Activity entry in data set [1] was “Agonist”.
Turning to `CCSCCOC(=O)C1=C(C)NC2=C(C(=O)CC(c3ccc(Cl)cc3)C2)C1c1ccccc1OC` (stereo not shown) [Compound 15], the Activity entry in data set [1] was “Agonist”.
As to `Cc1cc(C)c(NS(=O)(=O)c2ccc(NC(=O)COc3ccc(Cl)cc3)cc2)c(C)c1` [Compound 19], the Activity result in data set [1] is on record as “Agonist”.
Consider `COc1ccc(C2C(C(=O)OCCOc3ccccc3)=C(C)NC3=C2C(=O)CC(c2ccccc2)C3)cc1O` (stereo not shown) [Compound 3], for which, in data set [1], the Activity entry is “Agonist”.
`Cc1cccc(OCC(=O)Nc2ccc(S(=O)(=O)Nc3ccc(C)cc3C)cc2)c1` [Compound 23]: the Activity entry in data set [1] is “Antagonist”.
`COCCOC(=O)C1=C(C)NC2=C(C(=O)CC(c3ccc(Cl)cc3)C2)C1c1ccc(C)cc1` (stereo not shown) [Compound 14]: in data set [1], the Activity result was “Agonist”.
For the molecule `C[C@H](/C=C/[C@H](C)C(C)(C)O)[C@H]1CC[C@H]2/C(=C/C=C3C[C@@H](O)C[C@H](O)C3)CCC[C@]12C` [paricalcitol, reference compound], in data set [2], the PTH levels entry was “significantly reduced”.
As for `COCCOC(=O)C1=C(C)NC2=C(C(=O)CC(c3ccc(Cl)cc3)C2)C1c1ccc(Br)cc1` (stereo not shown) [Compound 8], the Activity result in data set [1] is reported as “Agonist”.
For `CCSCCOC(=O)C1=C(C)NC2=C(C(=O)CC(c3ccc(OC)cc3)C2)C1c1ccccc1OC` (stereo not shown) [Compound 17], the Activity result in data set [1] is given as “Agonist”.
With `Cc1cccc(OCC(=O)Nc2ccc(S(=O)(=O)Nc3c(C)cc(C)cc3C)cc2)c1` [Compound 20], in data set [1], the Activity result is recorded as “Agonist”.
`CCSCCOC(=O)C1=C(C)NC2=C(C(=O)CC(c3ccc(OC)cc3)C2)C1c1ccccc1F` (stereo not shown) [Compound 13]: in data set [1], the Activity entry is on record as “Agonist”.
Same read-out and setting: under `CCOC(=O)C1=C(C)NC2=C(C(=O)CC(c3ccc(Cl)cc3)C2)C1c1ccc(F)cc1` (stereo not shown) [Compound 2] stands “Agonist”.
With `Cc1ccc(OCC(=O)Nc2ccc(S(=O)(=O)Nc3c(C)cc(C)cc3C)cc2)cc1` [Compound 18], in data set [1], the Activity result is “Agonist” and the “VDR agonistic activity (degree, in words)” value is “modest agonist activity”.
As to `C=C1/C(=C\C=C2/CCC[C@]3(C)[C@@H]([C@H](C)CCCC(C)(C)O)CC[C@@H]23)C[C@@H](O)C[C@@H]1O` [calcitriol, 1α,25-Dihydroxyvitamin D3, reference compound], in data set [3] (0.6 μg/kg for one week (three administrations)), the “increase in serum calcium level compared to the vehicle, long term” value is given as “about 45%”. The “increase in serum calcium level compared to the vehicle, short term” value in data set [3] (24 hours after administration, 0.60 and 3.0 μg/kg doses) was “did not show significant increase”.
For the molecule `CCSCCOC(=O)C1=C(C)NC2=C(C(=O)CC(c3ccccc3)C2)C1c1ccccc1` (stereo not shown) [Compound 1], in data set [1], the Activity entry is “Agonist” and the “VDR agonistic activity (degree, in words)” value is given as “highest degree of agonistic activity”.
